Where a name gives a salt, the structure may show the parent alone.
Tests used:
DU145 = assay: Growth inhibition, neutral red assay, DU145; assay type: cell-based, human; conditions: free base, five days
Procedure: (§1) Compound I's activity is not confined to activity against colon cancer cell lines or animal models of colon cancer. It has a broad range of anti-neoplastic effects in various neoplastic cell lines. Various types of human cancer cell lines were propagated under sterile conditions in RPMI 1640 medium with 10% fetal bovine serum, 2 mM L-glutamine and sodium bicarbonate. To determine growth inhibitory effects of Compound I, cells were seeded in 96-well plates at a density of 1000 cells per well. Twenty-four hours after plating, the cells were dosed with various concentrations of the free base of Compound I solubilized in DMSO (final concentration 0.1%). The effect of the drug on tumor cell growth was determined using the neutral red cytotoxicity assay following five days of continuous treatment. Neutral red is a dye that is selectively taken up by viable cells by an ATP-dependent transport mechanism.

SW-620 = assay: Growth inhibition, neutral red assay, SW-620; assay type: cell-based, human; conditions: free base, five days
Procedure: as §1

NCI-H82 = assay: Growth inhibition, neutral red assay, NCI-H82; assay type: cell-based, human; conditions: free base, five days
Procedure: as §1

OVCAR = assay: Growth inhibition, neutral red assay, OVCAR; assay type: cell-based; conditions: Homo sapiens; HCl salt
Procedure: as §1

PANC-1 = assay: Growth inhibition, neutral red assay, PANC-1; assay type: cell-based; conditions: Homo sapiens, HCl salt
Procedure: as §1

[1] = Seven-day dose-range finding study in rats; assay type: in vivo, rat
[2] = system: premalignant lesions in mouse mammary gland organ culture; assay: Mammary gland organ culture model; assay type: cell-based; on mammary gland organ culture: key: −: Not active; +: Slightly active; ++: Moderately active; +++: Strongly active; ++++: Highly active
[3] = Safety evaluation in exisulind clinical trials; assay type: in vivo
Procedure: In these exisulind trials and several others involving the drug in other indications, safety was evaluated by monitoring adverse events (AEs), clinical laboratory tests (hematology, serum chemistry, and urinalysis), vital signs (blood pressure, pulse rate, respiratory rate, temperature, and weight), physical examination, and upper endoscopy.

[4] = system: HT-29 colon adenocarcinoma cells; assay: Apoptosis by DNA fragmentation assay in HT-29; assay type: cell-based, human; conditions: qualitative activity profile; further: key: −: Not active; +: Slightly active; ++: Moderately active; +++: Strongly active; ++++: Highly active
HT-29 cells = assay: Apoptosis and necrosis by morphology (acridine orange and ethidium bromide); assay type: cell-based, human; conditions: HT-29 treated for six days
Source text: Apoptosis occurs naturally during normal tissue turnover and during embryonic development of organs and limbs. Apoptosis also is induced by cytotoxic T-lymphocytes and natural killer cells, by ionizing radiation and by certain chemotherapeutic drugs. Inappropriate regulation of apoptosis is thought to play an important role in many pathological conditions including cancer, AIDS, or Alzheimer's disease, etc. Compounds can be screened for induction of apoptosis using cultures of tumor cells maintained under conditions as described above. Treatment of cells with test compounds involves either pre- or post-confluent cultures and treatment for two to seven days at various concentrations. Apoptotic cells are measured in both the attached and “floating” compartments of the cultures. Both compartments are collected by removing the supernatant, trypsinizing the attached cells, and combining both preparations following a centrifugation wash step (10 minutes, 2000 rpm). The protocol for treating tumor cell cultures with sulindac and related compounds to obtain a significant amount of apoptosis has been described in the literature. (See, Piazza, G. A., et al., Cancer Research, 55:3110-16, 1995, which is incorporated herein by reference). The novel features include collecting both floating and attached cells, identification of the optimal treatment times and dose range for observing apoptosis, and identification of optimal cell culture conditions.
Following treatment with a compound, cultures can be assayed for apoptosis and necrosis by florescent microscopy following labeling with acridine orange and ethidium bromide. The method for measuring apoptotic cell number has previously been described by Duke & Cohen, “Morphological And Biochemical Assays Of Apoptosis,” Current Protocols In Immunology, Coligan et al., eds., 3.17.1-3.17.16 (1992, which is incorporated herein by reference).
For example, floating and attached cells can be collected by trypsinization and washed three times in PBS. Aliquots of cells can be centrifuged. The pellet can then be re-suspended in media and a dye mixture containing acridine orange and ethidium bromide prepared in PBS and mixed gently. The mixture can then be placed on a microscope slide and examined for morphological features of apoptosis.
Reference compounds and test compounds were analyzed for their novel PDE inhibitory activity in accordance with the protocols for the assay, supra. […] Apoptotic and necrotic cell death was determined previously (Duke and Cohen, In: Current Protocols in Immunology, 3.17.1-3.17.16, New York, John Wiley and Sons, 1992). […] All data were collected from the same experiment.
The apoptosis inducing activity for a series of phosphodiesterase inhibitors was determined. HT-29 cell were treated for 6 days with various inhibitors of phosphodiesterase. Apoptosis and necrosis were determined morphologically after acridine orange and ethidium bromide labeling in accordance with the assay described, supra.

Row | SMILES | GI50 (DU145; Homo sapiens, DU-145, 120 h) [µM] | GI90 μM, DU145 (DU145) [µM] | GI50 (SW-620; Homo sapiens, SW-620, 120 h) [µM] | GI90 μM, SW-620 (SW-620) [µM] | GI50 (NCI-H82; Homo sapiens, NCI-H82, 120 h) [µM] | GI90 μM, NCI-H82 (NCI-H82) [µM] | GI50 (OVCAR) [µM] | GI50 (PANC-1) [µM] | signs of toxicity, seven-day study ([1]; 50 mg/kg/day) | treatment-related effects, seven-day study ([1]; 500 mg/kg/day) | effects, seven-day study ([1]; 2000 mg/kg/day) | inhibition of the formation of premalignant lesions ([2]; mammary gland organ culture) | Mammary Gland Organ Culture ([2]; qualitative activity profile) | apoptosis rates in paired biopsies of polyp and normal colonic tissues ([3]; APC patients) | toxicities in clinical trials ([3]; human, in vivo) | maximum tolerated dose (MTD) ([3]; patients with intact colons) [mg] | maximum tolerated dose (MTD) ([3]; patients with subtotal colectomy) [mg] | maximum tolerated dose (MTD) ([3]; pediatric patients) [mg] | Apoptosis [4] | apoptotic and necrotic cell death (HT-29 cells)
1 | CC1=C(CC(=O)NCc2ccccc2)c2cc(F)ccc2/C1=C\c1ccncc1 [Compound I, (Z)-5-fluoro-2-methyl-(4-pyridylidene)-3-(N-benzyl)indenylacetamide hydrochloride] | 1.6 | 2.8 | 1.7 | 2.5 | 1.7 | 5.8 | 1.2 | 2.2 | no observable signs of toxicity | increase in absolute and relative liver weights in female rats | labored breathing and/or abnormal respiratory sounds, decreased weights gains and food consumption in male rats, and increased liver weights in female rats |  |  |  |  |  |  |  |  | 
2 | CC1=C(CC(=O)O)c2cc(F)ccc2/C1=C\c1ccc(S(C)(=O)=O)cc1 [Exisulind, 5-fluoro-2-methyl-1-(p-methylsulfonylbenzylidene)-3-indenylacetic acid] |  |  |  |  |  |  |  |  |  |  |  | effectively inhibit the formation of premalignant lesions | +++ | increased apoptosis rates in polyp, but not normal colonic tissues | did not demonstrate any blood dyscrasia, dose-limiting vomiting, or neurological or renal toxicities | 400 | 600 | 350 | ++ | capable of causing apoptotic cell death without inducing necrosis

— patent US20030109418A1, “Methods for identifying compounds for inhibition of neoplastic lesions, and pharmaceutical compositions containing such compounds” (priority 1999, published 2003)
